Source: patent US11208387B2, “Macrocyclic broad spectrum antibiotics” (Genentech, Inc., priority 2019, dated 2021)
In brackets after ≈: the same amount, converted by molar mass. Read-outs that look alike come from different tables or passages of the source.

Legend:
Assay in all cases: Serum MIC, broth micro-dilution
Type in all cases: cell-based
[1] = tested on: Acinetobacter baumannii ATCC 17978; conditions: 50% v/v mouse serum in Mueller Hinton II cation adjusted Broth, 35° C., 22 hours
Procedure, shortened: (§1)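 Serum-shifted MIC: medium is a 1:1 v/v mix of cation-adjusted MH II broth and mouse serum. 10-point 2-fold dilution series, top 64, 4, 0.5 or 0.13 μg/mL depending on protocol. Inoculum OD600 0.0005 final; 35° C, 22 h.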

[2] = tested on: Escherichia coli strain ATCC 25922; conditions: 50% v/v mouse serum in Mueller Hinton II cation adjusted Broth, 35° C., 22 hours, Table 4, read-out: E. coli 25922 Serum MIC
Procedure, shortened: as §1

[3] = tested on: Klebsiella pneumoniae ATCC 700603; conditions: 50% v/v mouse serum in Mueller Hinton II cation adjusted Broth, 35° C., 22 hours, Table 4
Procedure, shortened: as §1

[4] = tested on: Pseudomonas aeruginosa PA01; conditions: 50% v/v mouse serum in Mueller Hinton II cation adjusted Broth, 35° C., 22 hours, Table 4; for MIC: Pseudomonas aeruginosa, PA01, read-out: P. aeruginosa 01 Serum MIC
Procedure, shortened: as §1

[5] = Acinetobacter baumannii, ATCC17978, Table 4, read-out: A. baumanii 17978 Serum MIC
[6] = Acinetobacter baumannii, ATCC17978, Table 5, read-out: Acinetobacter baumanii 17978 Serum MIC
[7] = Klebsiella pneumoniae, ATCC700603, read-out: K pneumoniae 700603 Serum MIC

Row | Compound | MIC [1, 5] [µM] | MIC [1, 6] [µM] | MIC ([2]; Escherichia coli, ATCC25922) [µM] | MIC [3, 7] [µM] | MIC [4] [µM] | MIC ([1]; Table 4, read-out: A. baumanii 17978 Serum MIC) [µM] | MIC ([1]; Table 5, read-out: Acinetobacter baumanii 17978 Serum MIC) [µM] | MIC [2] [µM] | MIC ([3]; read-out: K. pneumoniae 700603 Serum MIC) [µM] | P. aeruginosa 01 Serum MIC [4] [µM]
1 | Cc1nc(-c2ccc(C(C)(C)C)cc2O)cc(CN)c1C(=O)N[C@@H](CNS(N)(=O)=O)C(=O)N(C)[C@@H]1C(=O)N[C@@H](C)C(=O)N[C@H](C(=O)O)Cc2ccc(OC[C@H](O)CN)c(c2)-c2cc1cc(OC[C@H](O)CN)c2O [Example 65, (8S,11S,14S)-3,17-bis[(2R)-3-amino-2-hydroxy-propoxy]-14-[[(2S)-2-[[4-(aminomethyl)-6-(4-tert-butyl-2-hydroxy-phenyl)-2-methyl-pyridine-3-carbonyl]-amino]-3-(sulfamoyl-amino)propanoyl]-methyl-amino]-18-hydroxy-11-methyl-10,13-dioxo-9,12-diazatricyclo-[13.3.1.12,6]icosa-1(19),2(20),3,5,15,17-hexaene-8-carboxylic acid] | 32 (≈ 33.2 µg/mL) | 32 (≈ 33.2 µg/mL) | 1 (≈ 1.04 µg/mL) | 1 (≈ 1.04 µg/mL) | 16 (≈ 16.6 µg/mL) | – | – | – | – | –
2 | COc1c(OC[C@H](O)CN)cc2cc1-c1cc(ccc1OC[C@H](O)CN)C[C@@H](C(=O)O)NC(=O)[C@H](C)NC(=O)[C@H]2N(C)C(=O)[C@H](CCN)NC(=O)c1cnc(-c2ccc(C3(C)CC3)cc2)nc1C [Example 74, (8S,11S,14S)-3,17-bis[(2R)-3-amino-2-hydroxy-propoxy]-14-[[(2S)-4-amino-2-[[4-methyl-2-[4-(1-methylcyclopropyl)-phenyl]pyrimidine-5-carbonyl]amino]-butanoyl]-methyl-amino]-18-methoxy-11-methyl-10,13-dioxo-9,12-diazatri-cyclo[13.3.1.12,6]icosa-1(18),2(20),3,5,15(19), 16-hexaene-8-carboxylic acid] | 32 (≈ 30.1 µg/mL) | 32 (≈ 30.1 µg/mL) | 0.5 (≈ 0.47 µg/mL) | 0.5 (≈ 0.47 µg/mL) | 64 (≈ 60.2 µg/mL) | – | – | – | – | –
3 | COc1c(OC[C@H](O)CN)cc2cc1-c1cc(ccc1OC[C@H](O)CN)C[C@@H](C(=O)O)NC(=O)[C@H](C)NC(=O)[C@H]2N(C)C(=O)[C@H](CNS(N)(=O)=O)NC(=O)c1c(C)nc(-c2ccc(C(C)(C)C)cc2)nc1N [Example 75, (8S,11S,14S)-14-[[(2S)-2-[[4-amino-2-(4-tert-butylphenyl)-6-methyl-pyrimidine-5-carbonyl]amino]-3-(sulfamoylamino)-propanoyl]-methyl-amino]-3,17-bis[(2R)-3-amino-2-hydroxy-propoxy]-18-methoxy-11-methyl-10,13-dioxo-9,12-diazatri-cyclo[13.3.1.12,6]icosa-1(18),2(20),3,5,15(19), 16-hexaene-8-carboxylic acid] | – | – | – | – | – | 16 (≈ 16.4 µg/mL) | 16 (≈ 16.4 µg/mL) | 0.75 (≈ 0.767 µg/mL) | 0.5 (≈ 0.511 µg/mL) | 8

The remaining compounds from weak to strong by MIC [1, 5], led by results:

Row | MIC [1, 5] [µM] | MIC [1, 6] [µM] | MIC ([2]; Escherichia coli, ATCC25922) [µM] | MIC [3, 7] [µM] | MIC [4] [µM] | Compound | MIC ([1]; Table 4, read-out: A. baumanii 17978 Serum MIC) [µM] | MIC ([1]; Table 5, read-out: Acinetobacter baumanii 17978 Serum MIC) [µM] | MIC [2] [µM] | MIC ([3]; read-out: K. pneumoniae 700603 Serum MIC) [µM] | P. aeruginosa 01 Serum MIC [4] [µM]
4 | 24 (≈ 24.5 µg/mL) | 24 (≈ 24.5 µg/mL) | 2 (≈ 2.04 µg/mL) | 1.5 (≈ 1.53 µg/mL) | 16 (≈ 16.4 µg/mL) | Cc1nc(-c2ccc(C(C)(C)C)cc2)nc(N)c1C(=O)N[C@@H](CCNS(N)(=O)=O)C(=O)N(C)[C@@H]1C(=O)N[C@@H](C)C(=O)N[C@H](C(=O)O)Cc2ccc(OC[C@H](O)CN)c(c2)-c2cc1cc(OC[C@H](O)CN)c2O [Example 76, (8S,11S,14S)-14-[[(2S)-2-[[4-amino-2-(4-tert-butylphenyl)-6-methyl-pyrimidine-5-carbonyl]amino]-4-(sulfamoylamino)-butanoyl]-methyl-amino]-3,17-bis[(2R)-3-amino-2-hydroxy-propoxy]-18-hydroxy-11-methyl-10,13-dioxo-9,12-diazatricyclo-[13.3.1.12,6]icosa-1(18),2(20),3,5,15(19), 16-hexaene-8-carboxylic acid] | – | – | – | – | –
5 | 16 (≈ 16.7 µg/mL) | 16 (≈ 16.7 µg/mL) | 0.5 (≈ 0.521 µg/mL) | 1 (≈ 1.04 µg/mL) | 4 (≈ 4.17 µg/mL) | Cc1nc(-c2ccc(C(C)(C)C)c(F)c2O)nc(N)c1C(=O)N[C@@H](CNS(N)(=O)=O)C(=O)N(C)[C@@H]1C(=O)N[C@@H](C)C(=O)N[C@H](C(=O)O)Cc2ccc(OC[C@H](O)CN)c(c2)-c2cc1cc(OC[C@H](O)CN)c2O [Example 67, (8S,11S,14S)-18-hydroxy-11-methyl-14-[methyl-[(2S)-2-[[4-amino-2-(4-tert-butyl-3-fluoro-2-hydroxy-phenyl)-6-methyl-pyrimidine-5-carbonyl]amino]-3-(sulfamoylamino)-propanoyl]amino]-10,13-dioxo-3,17-bis[(2R)-3-amino-2-hydroxy-propoxy]-9,12-diazatricyclo-[13.3.1.12,6]icosa-1(18),2(20),3,5,15(19), 16-hexaene-8-carboxylic acid] | – | – | – | – | –
6 | 16 (≈ 16.5 µg/mL) | 16 (≈ 16.5 µg/mL) | 1.5 (≈ 1.55 µg/mL) | 1 (≈ 1.03 µg/mL) | 6 (≈ 6.19 µg/mL) | Cc1c(C#N)c(-c2ccc(C(C)(C)C)cc2)nc(N)c1C(=O)N[C@@H](CNS(N)(=O)=O)C(=O)N(C)[C@@H]1C(=O)N[C@@H](C)C(=O)N[C@H](C(=O)O)Cc2ccc(OC[C@H](O)CN)c(c2)-c2cc1cc(OC[C@H](O)CN)c2O [Example 68, (8S,11S,14S)-14-[[(2S)-2-[[2-amino-6-(4-tert-butylphenyl)-5-cyano-4-methyl-pyridine-3-carbonyl]-amino]-3-(sulfamoyl-amino)propanoyl]-methyl-amino]-3,17-bis[(2R)-3-amino-2-hydroxy-propoxy]-18-hydroxy-11-methyl-10,13-dioxo-9,12-diazatricyclo-[13.3.1.12,6]icosa-1(19),2(20),3,5,15,17-hexaene-8-carboxylic acid] | – | – | – | – | –
7 | 16 (≈ 14.8 µg/mL) | 16 (≈ 14.8 µg/mL) | 0.38 (≈ 0.352 µg/mL) | 0.25 (≈ 0.232 µg/mL) | 64 (≈ 59.3 µg/mL) | Cc1nc(-c2ccc(C3(C)CC3)cc2)ncc1C(=O)N[C@@H](CCN)C(=O)N(C)[C@@H]1C(=O)N[C@@H](C)C(=O)N[C@H](C(=O)O)Cc2ccc(OC[C@@H](O)CN)c(c2)-c2cc1cc(OC[C@@H](O)CN)c2O [Example 73, (8S,11S,14S)-3,17-bis[(2S)-3-amino-2-hydroxy-propoxy]-14-[[(2S)-4-amino-2-[[4-methyl-2-[4-(1-methylcyclopropyl)-phenyl]pyrimidine-5-carbonyl]amino]-butanoyl]-methyl-amino]-18-hydroxy-11-methyl-10,13-dioxo-9,12-diazatri-cyclo-[13.3.1.12,6]icosa-1(19),2(20),3,5,15,17-hexaene-8-carboxylic acid] | – | – | – | – | –
8 | 8 (≈ 7.83 µg/mL) | 8 (≈ 7.83 µg/mL) | 0.25 (≈ 0.245 µg/mL) | 0.5 (≈ 0.49 µg/mL) | 8 (≈ 7.83 µg/mL) | C[C@@H]1NC(=O)[C@@H](N(C)C(=O)[C@H](CNS(N)(=O)=O)NC(=O)c2cnc(-c3ccc(C(C)(C)C)cc3)nc2)c2cc(OC[C@H](O)CN)c(O)c(c2)-c2cc(ccc2OC[C@H](O)CN)C[C@@H](C(=O)O)NC1=O [Example 71, (8S,11S,14S)-3,17-bis[(2R)-3-amino-2-hydroxy-propoxy]-14-[[(2S)-2-[[2-(4-tert-butylphenyl)-pyrimidine-5-carbonyl]amino]-3-(sulfamoylamino)-propanoyl]-methyl-amino]-18-hydroxy-11-methyl-10,13-dioxo-9,12-diazatri-cyclo[13.3.1.12,6]icosa-1(18),2(20),3,5,15(19), 16-hexaene-8-carboxylic acid] | – | – | – | – | –
